What was measured:
[1] = tested on: Interleukin-2 (IL-2) production/release; assay: Jurkat IL-2 Production Assay; type: cell-based; conditions: Homo sapiens; Jurkat T cells clone E6-1, 15 μg/ml PHA for 22 hours, IL-2 in supernatant
Protocol: Jurkat IL-2 Production Assay
The effect of compounds of the invention on Interleukin-2 (IL-2) production/release was tested in the Jurkat T cell line (ECACC) clone E6-1.
Jurkat T cells were cultured in DMEM/F12/Glutamax (Gibco) containing 10% FCS (Gibco), and maintained at 37° C., 5% CO2. Cell were split twice a week [5*10^6 (Mon-Thu) and 1*10^7 (Thu-Mon) cells/50 ml medium in T-175 ZK culture flasks, respectively].
Prior to experiment, cells were seeded on 96 well plates (Cellstar 96 Well; Cat No. 655180, Greiner bio-one) at a density of 5*10^5 cells/well in DMEM/F12/Glutamax (Gibco) containing 10% FCS (Gibco), and incubated for 60 min at 37° C., 5% CO2. Subsequently, compounds were added and cells were allowed to incubate for 30 min at 37° C., 5% CO2. Cells were then stimulated with 15 μg/ml Phytohemagglutinin (PHA; Sigma) for 22 hours at 37° C., 5% CO2.
Before sampling of the supernatants, cells were spun down (200*g/5 min/RT). The amount of IL-2 released into the supernatant was quantified with the human IL-2 AlphaLisa kit (Perkin Elmer) according to manufacturer's instructions. Luminescence proximity measurements were carried out in the Synergy H4 reader (BioTek) employing the fluorescence setting of the reader (ex: 680/30 nm; em: 620/40 nm).
Inhibition of IL-Production/Release in/from Jurkat T Cells was Quantified as Follows:
Zero percent inhibition (MAX) was defined as the [IL-2] determined in supernatants derived from cells to which PHA & DMSO-only had been added instead of compound. Hundred percent inhibition (MIN) was defined as the [IL-2] determined in supernatants derived from cells that had been pre-treated with 1 μM CyclosporineA (Sigma) before the addition of 15 μg/ml PHA.
For routine IC50 determinations of compounds, 8 concentrations of a serial dilution (1:3.16) were tested, starting off from 10 μM.

[2] = molecular target: T1, CRAC channel (Homo sapiens, UniProt Q96D31); assay: HEK Calcium Influx Assay (FLIPR); type: cell-based; conditions: 10 μM; endogenous SOC in HEK293 cells, thapsigargin store depletion, Ca2+ signal 9.5-10 min post-administration; read-out: % inhib.[@ 10 μM] FLIPR
T1 construct: host or cells: HEK293
Protocol: The effect of compounds of the invention on intracellular [Ca^2+] was tested in the HEK293 cell line (ECACC).
HEK293 cells were cultured in DMEM/F12/Glutamax (Gibco) containing 10% FCS (Gibco), and maintained at 37° C., 5% CO2. Cell were split twice a week [3*10^6 (Mon-Thu) and 1*10^6 (Thu-Mon) cells/50 ml medium in T-175 ZK culture flasks, respectively]. Twenty four hours pre-experiment, cells were seeded on 96 well plates (Poly-D-Lysine 96well Black/Clear Plate, BD Biocoat REF 356640) at a density of 40,000 cells/well in DMEM/F12 (Gibco) containing 10% FCS (Gibco), and maintained at 37° C., 5% CO2.
Prior to store-depletion, cell culture medium was removed and cells were loaded with the a Calcium-sensitive fluorescent dye comprised within the Calcium-4-assay kit (Molecular Devices) in nominally Ca^2+-free HBS buffer (140 mM NaCl, 4 mM KCl, 0.2 mM MgCl2, 11 mM D-glucose, and 10 mM HEPES, pH 7.4) according to manufacturer's instruction for 60 min at 37° C., 5% CO2.
Passive depletion of intracellular Ca^2+-stores was then triggered by employing the SERCA inhibitor thapsigargin (2 μM final) for 10 min in the dark (RT). To prevent immediate Ca^2+-entry via the activated Store-operated channels (SOCs), cells were maintained in Ca^2+-free HBS buffer comprising 100 μM EGTA during store-depletion.
Intracellular changes in [Ca^2+] were subsequently monitored with the FLIPR device (Molecular Devices). In brief, baseline imaging post-store depletion was allowed for 1 min before adjusting the extracellular buffer to 3 mM CaCl2. Increases in intracellular [Ca^2+] due to pre-activated SOC channels were monitored for 15 min until intracellular Ca^2+ levels had declined into a steady-state. Finally, compounds were administered and Ca^2+ signals were recorded for additional 10 min.
Inhibition of endogenous SOC in HEK293 cells was quantified employing the average Ca^2+ signal measured from 9.5-10 min post-administration. Zero percent inhibition (MAX) was defined as the Ca^2+ signal recorded from wells to which DMSO-only had been added instead of compound. Hundred percent inhibition (MIN) was defined as the signal obtained from wells in which cells haven't been treated with TG prior to Ca^2+ addition and to which DMSO-only had been added instead of compound. For routine IC50 determinations of compounds, 8 concentrations of a serial dilution (1:3.16) were tested, starting off from 10 μM. Reliable IC50's could consequently be determined only, if they were at least sub 2.5-3 μM.

T1 sequence (Q96D31 whole entry): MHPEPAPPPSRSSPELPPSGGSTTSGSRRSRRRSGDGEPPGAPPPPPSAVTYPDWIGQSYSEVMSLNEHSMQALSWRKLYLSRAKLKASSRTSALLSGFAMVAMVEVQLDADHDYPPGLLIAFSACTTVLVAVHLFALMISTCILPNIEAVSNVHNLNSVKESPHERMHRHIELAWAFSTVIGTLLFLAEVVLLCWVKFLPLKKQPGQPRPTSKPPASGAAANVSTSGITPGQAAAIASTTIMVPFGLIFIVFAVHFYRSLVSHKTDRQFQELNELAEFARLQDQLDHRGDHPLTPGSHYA

Structure (SMILES) | IC50 [1] | inhibition at 10 µM [2]
COc1ccc(OC)c(-c2c(N)c(C(=O)Nc3c(F)cccc3F)nn2C)c1 [Example 44, 4-Amino-N-(2,6-difluoro-phenyl)-5-(2,5-dimethoxyphenyl)-1-methyl-1H-pyrazole-3-carboxylic acid amide] | 1 to 5 µM | 50 to 70%
Cn1nc(C(=O)Nc2c(F)cccc2F)cc1-c1cc(C(F)(F)F)ccc1Cl [Example 36, 5-[2-Chloro-5-(trifluoromethyl)-phenyl]-N-(2,6-difluoro-phenyl)-1-methyl-1H-pyrazole-3-carboxylic acid amide] | < 0.5 µM | > 70%
CCc1c(C(=O)Nc2c(F)cccc2F)nn(C)c1-c1cc(OC)ccc1OC [Example 42, N-(2,6-Difluoro-phenyl)-5-(2,5-dimethoxyphenyl)-4-ethyl-1-methyl-1H-pyrazole-3-carboxylic acid amide] | 1 to 5 µM | 50 to 70%
COc1ccc(OC)c(-c2cc(C(=O)Nc3c(F)cncc3F)nn2C)c1 [Example 34, N-(3,5-Difluoro-pyridin-4-yl)-5-(2,5-dimethoxyphenyl)-1-methyl-1H-pyrazole-3-carboxylic acid amide] | < 0.5 µM | > 70%
Cn1nc(C(=O)Nc2c(F)cccc2F)cc1-c1cc(OC(F)(F)F)ccc1C1CC1 [Example 45, 5-[2-Cyclopropyl-5-(trifluoromethyloxy)-phenyl]-N-(2,6-difluoro-phenyl)-1-methyl-1H-pyrazole-3-carboxylic acid amide] | 0.5 to 1 µM | > 70%
COc1ccc(OC(F)(F)F)c(-c2cc(C(=O)Nc3ccncc3F)nn2C)c1 [Example 9, N-(3-Fluoro-pyridin-4-yl)-5-[5-methoxy-2-(trifluoromethyloxy)-phenyl]-1-methyl-1H-pyrazole-3-carboxylic acid amide] | 1 to 5 µM | > 70%
COc1ccc(OC)c(-c2cc(C(=O)Nc3cnc(C)cc3C)nn2C)c1 [Example 17, 5-(2,5-Dimethoxyphenyl)-N-(4,6-dimethyl-pyridin-3-yl)-1-methyl-1H-pyrazole-3-carboxylic acid amide] | 1 to 5 µM | 50 to 70%
COc1ccc(OC)c(-c2cc(C(=O)Nc3c(C)cccc3F)nn2C)c1 [Example 32, 5-(2,5-Dimethoxyphenyl)-N-(2-fluoro-6-methyl-phenyl)-1-methyl-1H-pyrazole-3-carboxylic acid amide] | < 0.5 µM | > 70%
Cn1nc(C(=O)Nc2c(F)cccc2F)cc1-c1c(F)cccc1C(F)(F)F [Example 51, N-(2,6-Difluoro-phenyl)-5-[2-fluoro-6-(trifluoromethyl)-phenyl]-1-methyl-1H-pyrazole-3-carboxylic acid amide] | 1 to 5 µM | 50 to 70%
COc1ccc(OC)c(-c2cc(C(=O)Nc3c(F)cccc3Cl)nn2C)c1 [Example 35, N-(2-Chloro-6-fluoro-phenyl)-5-(2,5-dimethoxyphenyl)-1-methyl-1H-pyrazole-3-carboxylic acid amide] | < 0.5 µM | > 70%
CNc1c(C(=O)Nc2c(F)cncc2F)nn(C)c1-c1cc(OC)ccc1OC [Example 67, N-(3,5-Difluoro-pyridin-4-yl)-5-(2,5-dimethoxyphenyl)-1-methyl-4-methylamino-1H-pyrazole-3-carboxylic acid amide] | 1 to 5 µM | < 50%
COc1ccc(OC)c(-c2cc(C(=O)Nc3ccc(F)cc3F)nn2C)c1 [Example 2, N-(2,4-Difluoro-phenyl)-5-(2,5-dimethoxyphenyl)-1-methyl-1H-pyrazole-3-carboxylic acid amide] | 1 to 5 µM | > 70%
COc1ccc(OC)c(-c2cc(C(=O)Nc3ccncc3C#N)nn2C)c1 [Example 15, N-(3-Cyano-pyridin-4-yl)-5-(2,5-dimethoxyphenyl)-1-methyl-1H-pyrazole-3-carboxylic acid amide] | 1 to 5 µM | 50 to 70%
COc1ccc(OC)c(-c2cc(C(=O)Nc3ccncc3C)nn2C)c1 [Example 20, 5-(2,5-Dimethoxyphenyl)-1-methyl-N-(3-methyl-pyridin-4-yl)-1H-pyrazole-3-carboxylic acid amide] | 0.5 to 1 µM | > 70%
COc1ccc(OC)c(-c2c(C)c(C(=O)Nc3ccncc3F)nn2C)c1 [Example 25, 5-(2,5-Dimethoxyphenyl)-N-(3-fluoro-pyridin-4-yl)-1,4-dimethyl-1H-pyrazole-3-carboxylic acid amide] | 0.5 to 1 µM | > 70%
Cn1nc(C(=O)Nc2c(F)cncc2F)cc1-c1cc(OC(F)(F)F)ccc1C1CC1 [Example 46, 5-[2-Cyclopropyl-5-(trifluoromethyloxy)-phenyl]-N-(3,5-difluoro-pyridin-4-yl)-1-methyl-1H-pyrazole-3-carboxylic acid amide] | < 0.5 µM | > 70%
COc1ccc(OC)c(-c2cc(C(=O)Nc3ncncc3C)nn2C)c1 [Example 18, 5-(2,5-Dimethoxyphenyl)-1-methyl-N-(5-methyl-pyrimidin-4-yl)-1H-pyrazole-3-carboxylic acid amide] | 1 to 5 µM | < 50%
Cc1ccc(C(F)(F)F)cc1-c1cc(C(=O)Nc2c(F)cccc2F)nn1C [Example 30, N-(2,6-Difluoro-phenyl)-1-methyl-5-[2-methyl-5-(trifluoromethyl)-phenyl]-1H-pyrazole-3-carboxylic acid amide] | 0.5 to 1 µM | > 70%
Cn1nc(C(=O)Nc2c(F)cccc2F)cc1-c1ccccc1C(F)(F)F [Example 7, N-(2,6-Difluoro-phenyl)-1-methyl-5-[2-(trifluoromethyl)-phenyl]-1H-pyrazole-3-carboxylic acid amide] | 0.5 to 1 µM | > 70%
COc1ccc(OC)c(-c2c(CO)c(C(=O)Nc3c(F)cccc3F)nn2C)c1 [Example 43, N-(2,6-Difluoro-phenyl)-5-(2,5-dimethoxyphenyl)-4-(hydroxymethyl)-1-methyl-1H-pyrazole-3-carboxylic acid amide] | 1 to 5 µM | < 50%
CCOc1ccc(OC)cc1-c1cc(C(=O)Nc2c(F)cccc2F)nn1C [Example 4, N-(2,6-Difluoro-phenyl)-5-(2-ethoxy-5-methoxy-phenyl)-1-methyl-1H-pyrazole-3-carboxylic acid amide] | 0.5 to 1 µM | > 70%
CCOc1ccc(OC)cc1-c1cc(C(=O)Nc2ccncc2F)nn1C [Example 3, 5-(2-Ethoxy-5-methoxy-phenyl)-N-(3-fluoro-pyridin-4-yl)-1-methyl-1H-pyrazole-3-carboxylic acid amide] | 1 to 5 µM | < 50%
Cn1nc(C(=O)Nc2ccc(F)cc2F)cc1-c1c(F)cccc1C(F)(F)F [Example 55, N-(2,4-Difluoro-phenyl)-5-[2-fluoro-6-(trifluoromethyl)-phenyl]-1-methyl-1H-pyrazole-3-carboxylic acid amide] | – | 50 to 70%

— patent publication US9078899B2, “Pyrazolyl-based carboxamides II” (Grünenthal GmbH, priority 2013, dated 2015)
